The text below walks through data of patent EP3150203B1, “COMPOUNDS WITH (1E,6E)-1,7-BIS-(3,4- DIMETHOXYPHENYL)-4,4-DISSTITUTED-HEPA-1,6-DIENE-3,5-DI-ONE STRUCTURAL SCAFFOLD,THEIR BIOLOGICAL ACTIVITY, AND USES THEREOF” (Allianz Pharmascience Ltd, priority 2012, dated 2013).

The nature of data set [1]: Stability in rat plasma (37°C). The class given is in vitro ADME. The text has this:
(§1) Also, at 24 hr where stability of JM49 was only 4%, while its derivative Compound 6 had improved to 79%. Similar improvements in stability (from 6- 24 hr) were also observed in the conditions of rat plasma (Table 4) and human plasma (Table 5). […] Table 3. Relative compound concentration changes (stability) in acidic condition

Data set [2] concerns CWR22Rv1 cells (human prostate cancer). The experiment in a line: MTT cell growth assay, CWR22Rv1 cells. Format: cell-based. As to conditions: Homo sapiens, 120 h, 5 days, read-out: Inhibition of Tumor cells growth IC50. As for the experimental part:
The MTT cell proliferation assay was applied in the present invention to detect the capability of compounds to suppress or inhibit prostate cancer cells growth. […] Briefly, 1 x 10^3 LNCaP or CWR22Rv1 cells suspended in complete medium were plated into each well of a 96-well Microtest III tissue culture plate (Falcon, NJ). Two days later, the medium was replaced with RPMI-1640 medium containing 10% charcoal/dextran-deprived FBS (hormone-deprived fetal bovine serum). Testing compounds were added to the medium at indicated concentrations with or without 1 nM DHT and cells were cultured for 5 days in an incubator (at 37 °C). MTT substrate solution (5 mg/ml in PBS) in 1/10 of volume was added to the cells in each well at 2 hours before harvesting. After 2 hour incubation, the plates were centrifuged (10 min at 1,000 rpm) and the supernatant from each well was carefully removed. A 100 µl of lysis buffer (50% dimethyl formamide, 5% sodium dodecyl sulphate, 0.35 M acetic acid, and 50 mM HCl) was added to each well to lyse the cells and dissolved tetrazolium in each well. The relative quantity of enzyme activity from each well was measured based on absorbance read at a wavelength of 450 nm using a Bio-RAD BenchMark microplate reader. Data derived from the MTT assay were also verified by the actual cell count and cell morphology on a separate plate set up in parallel.
For inhibition of tumor cell growth, in vitro, cells were growth in the presence of testing compounds for 5 days, and the cell growth was assayed by standard MTT assay. […] Table 2: Biological activity of Compounds and Derivatives having (1E, 6E)-1,7-bis-(3,4-dimethoxyphenyl)-4,4-disubstituted-hepta-1,6-diene-3,5-dione OR (1E, 10E)-1,11-bis(substituted phenyl)- 6,6-disubstituted undeca-1,3,8,10-tetraene-5,7-dione structural scaffold
(Tetrazolium assays rely on reduction of a dye to a coloured formazan, in cell work by metabolically active cells.)

A short description of data set [3]: Stability in human plasma (37°C). Format: in vitro ADME. The settings on record: result in words (Table 5 not given).
Description: as §1

A short description of data set [4]: Stability in acidic condition (0.1 N HCl, 37°C). Format: physicochemical.
Description: as §1

Usually IC50 stands for the concentration at which inhibition is half-maximal. Take `CCN(CC)C(=O)CC(C)(C(=O)/C=C/c1ccc(OC)c(OC)c1)C(=O)/C=C/c1ccc(OC)c(OC)c1` [Compound 6]: the “Concentration change (%) (stability) in rat plasma” value was determined as 100% in data set [1] (0 h); 98% in data set [1] (1 h); 96% in data set [1] (2 h); 93% in data set [1] (6 h); 77% in data set [1] (24 h); 51% in data set [1] (48 h). In addition, the half-inhibitory concentration (IC50) in data set [2] was determined as 1500 nM. The “stability in human plasma” value in data set [3] is “unexpectedly and dramatically improved”. Moreover, the “Concentration change (%) (stability) in acidic condition” value in data set [4] (0 h) was 100%; in data set [4] (2 h), 100%; in data set [4] (4 h), 99%; in data set [4] (24 h) it was 79%; in data set [4] (48 h), 56%.
On to `COc1ccc(/C=C/C(=O)C(C)(CC(=O)N(C)C)C(=O)/C=C/c2ccc(OC)c(OC)c2)cc1OC` [Compound 7], for which the “Concentration change (%) (stability) in rat plasma” value in data set [1] (0 h) is 100%; in data set [1] (1 h), 101%; in data set [1] (2 h), 100%; in data set [1] (6 h), 101%; in data set [1] (24 h), 99%; in data set [1] (48 h), 86%. In addition, the IC50 in data set [2] came out at 2000 nM. Besides, the “stability in human plasma” value in data set [3] is “unexpectedly and dramatically improved”. For the same compound, the “Concentration change (%) (stability) in acidic condition” value in data set [4] (0 h) is on record as 100%; in data set [4] (1 h), 99%; in data set [4] (2 h), 99%; in data set [4] (4 h), 98%; in data set [4] (24 h), 81%; in data set [4] (48 h), 58%.
Turning to `COc1ccc(/C=C/C(=O)C(CC(=O)N(C)C)=C(O)/C=C/c2ccc(OC)c(OC)c2)cc1OC` [JM77], the “Concentration change (%) (stability) in rat plasma” value worked out at 100% in data set [1] (0 h); 93% in data set [1] (1 h); 88% in data set [1] (2 h); 73% in data set [1] (6 h); 27% in data set [1] (24 h); 7% in data set [1] (48 h). In data set [3], the “stability in human plasma” value is listed as “chemically unstable”. The “Concentration change (%) (stability) in acidic condition” value is reported as 100% in data set [4] (0 h); 14% in data set [4] (1 h); 8% in data set [4] (2 h); 0% in data set [4] (6 h); 0% in data set [4] (24 h).
